# Source: article doi:10.1101/2025.09.24.678246 (bioRxiv, 2025)
# Where “and” joins values, the source holds several entries; their conditions need not be identical. Equal entries are not always repeated. Where two headings read alike, the source gives them in different places.
# Columns and labels:
# Mtb = test: Membrane fluidity measurements (laurdan GP); type: cell-based, Mycobacterium tuberculosis; conditions: 150 nM
# HT-29 = conditions: 48 h; for Growth compared to DMSO control (%): HT-29 cell
# E. faecium ATCC 19434 = test: MIC screening: E. faecium
# Procedure: (§1) MIC measurements were based on a method previously described[6]. Overnight liquid cultures of E. coli BW, E. coli C0244, A. baumannii ATCC 17978, K. pneumoniae ATCC 43816, P. aeruginosa PA01 and E. faecium ATCC 19434 strains were inoculated with a single colony from a freshly streaked agar plate of the corresponding bacterial strain and cultured in M9 minimal medium supplemented with amino acids[6]. The bacterial culture was prepared by washing 1 mL of overnight culture in PBS pH 7.4 (x3), then diluted to OD600 = 0.5 and used to inoculate 1:1000 in M9 minimal medium with amino acids in 96-well plates. Compounds were added to 96-well plates in two-fold serial dilutions. The plates were incubated stationary at 37 °C for 18 h, then OD600 was measured. […] The assay was performed in duplicate.
# Mtb H37Rv [1] = test: microbe, parasite or virus in culture; type: cell-based, Mycobacterium tuberculosis; conditions: Mycobacterium tuberculosis, H37RV; biotin-free medium
# K. pneumoniae ATCC 43816 = test: MIC screening against Gram-negative pathogens: K. pneumoniae
# Procedure: as §1
# E. coli = test: MIC screening against Gram-negative pathogens: E. coli
# Procedure: as §1
# [2] = system: ESKAPE panel of pathogens; test: MIC screening against the ESKAPE panel (summary)
# Procedure: as §1
# M. abscessus = test: MIC screening against M. abscessus (NTM); type: cell-based; conditions: Mycobacteroides abscessus
# P. aeruginosa PA01 = test: MIC screening against Gram-negative pathogens: P. aeruginosa
# Procedure: as §1
# Mtb H37Rv [3] = test: C48 biotin deficient TB efficacy study; type: in vivo, BALB/c mice; conditions: for bacterial burden per mouse, Fig. 5C / bacterial burden per mouse, Fig. 5D (second organ, not given): 200mg/kg
# in vivo = conditions: female, CD-1, mouse
# A. baumannii ATCC 17978 = test: MIC screening against Gram-negative pathogens: A. baumannii
# Procedure: as §1
# HepG2 = conditions: for Growth compared to DMSO control (%): HepG2 cell, 48 h
# [4] = 200 mg/kg p.o. once daily, three weeks, biotin-deficient BALB/c
# [5] = day 7 (values identical to Control: baseline)
smiles,measurement,setting,value
O=C1CCc2cc(N3CCN(C(=O)c4ccc(F)c(Br)c4)CC3)ncc21 [C48],Laurdan GP,Mtb; +Biotin,0.2273 and 0.2244 and 0.2183
same,Laurdan GP,Mtb; -Biotin,0.2797 and 0.2817 and 0.2774
same,laurdan GP change,Mtb; without biotin,increase
same,Growth compared to DMSO control (%),HT-29; 3.13 μM,103.339% and 102.14% and 102.153%
same,Growth compared to DMSO control (%),HT-29; 6.25 μM,105.34% and 100.609% and 100.571%
same,Growth compared to DMSO control (%),HT-29; 12.5 μM,103.832% and 99.2439% and 99.2304%
same,Growth compared to DMSO control (%),HT-29; 25 μM,102.371% and 98.4085% and 97.2044%
same,Growth compared to DMSO control (%),HT-29; 50 μM,101.665% and 97.1295% and 96.4305%
same,Growth compared to DMSO control (%),HT-29; 100 μM,100.396% and 97.8669% and 97.7498%
same,cytotoxicity toward HT-29,HT-29; concentrations up to 100 μM,no cytotoxicity
same,MIC,E. faecium ATCC 19434,inactive
same,MIC50,Mtb H37Rv [1],0.093 µM
same,MIC,K. pneumoniae ATCC 43816,inactive
same,MIC,E. coli; E. coli BW,inactive
same,MIC,E. coli; E. coli C0244,inactive
same,activity against the entire ESKAPE panel,[2],inactive
same,MIC,"M. abscessus; ATCC19977, read-out: MIC (50% growth inhibition), M. abscessus (ATCC19977), reference strain",0.5 µM
same,MIC,"M. abscessus; M. abscessus, NTM, footnote mark d, read-out: MIC",0.5 to 1 µM
same,MIC,"M. abscessus; read-out: MIC (50% growth inhibition), M. abscessus BWH-B, clinical strain",0.5 µM
same,MIC,"M. abscessus; read-out: MIC (50% growth inhibition), M. abscessus BWH-D, clinical strain",0.5 µM
same,MIC,"M. abscessus; read-out: MIC (50% growth inhibition), M. abscessus T35, clinical strain",0.5 µM
same,MIC,"M. abscessus; read-out: MIC (50% growth inhibition), M. abscessus T37, clinical strain",1 µM
same,MIC,"M. abscessus; read-out: MIC (50% growth inhibition), M. abscessus T38, clinical strain",1 µM
same,MIC,"M. abscessus; read-out: MIC (50% growth inhibition), M. abscessus T49, clinical strain",0.5 µM
same,MIC,M. abscessus; read-out: MICs against nontuberculous mycobacteria (NTM),0.5 to 1 µM
same,MIC,P. aeruginosa PA01,inactive
same,reduction of bacterial burden in lungs,Mtb H37Rv [3]; [4],1.0 log10 CFU
same,reduction of bacterial burden in spleen,Mtb H37Rv [3]; [4],2.1 log10 CFU
same,"bacterial burden per mouse, Fig. 5C",Mtb H37Rv [3]; [5],700 and 200 and 360 and 1090 and 400 and 320
same,"bacterial burden per mouse, Fig. 5D (second organ, not given)",Mtb H37Rv [3]; [5],1
same,"bacterial burden per mouse, Fig. 5C",Mtb H37Rv [3]; day 21,88000 and 30000 and 12000 and 11000 and 133000 and 32000
same,"bacterial burden per mouse, Fig. 5D (second organ, not given)",Mtb H37Rv [3]; day 21,90 and 1 (3×) and 20 and 70
same,"bacterial burden per mouse, Fig. 5C",Mtb H37Rv [3]; day 28,9700 and 74000 and 49000 and 29000 and 48000 (2×) and 36000
same,"bacterial burden per mouse, Fig. 5D (second organ, not given)",Mtb H37Rv [3]; day 28,20 and 6700 and 30 and 170 and 790 and 10 and 180
same,half-life,in vivo,54.6 min
same,Vd,in vivo; iv,0.26 L/kg
same,clearance,in vivo; iv,3.2 mL/min/kg
same,half-life,in vivo; iv,54.6 min
same,AUC(0-inf),"in vivo; po, 25 mg/kg",146 µg·h/mL
same,bioavailability,"in vivo; po, 25 mg/kg",> 100%
same,"plasma concentration, dose escalation","50 mg/kg p.o. for 4 days, 1 hr",61800 and 52800 and 56400
same,"plasma concentration, dose escalation","50 mg/kg p.o. for 4 days, 24 hr",12.4 and 12.1 and 9.65
same,"plasma concentration, dose escalation","100 mg/kg p.o. for 4 days, 0 hr",14 and 10 and 13
same,"plasma concentration, dose escalation","100 mg/kg p.o. for 4 days, 1 hr",112000 and 72300 and 72800
same,"plasma concentration, dose escalation","200 mg/kg p.o. for 4 days, 0 hr",16 and 17 and 26
same,"plasma concentration, dose escalation","200 mg/kg p.o. for 4 days, 1 hr",74500 and 50900 and 86400
same,"plasma concentration, dose escalation","200 mg/kg p.o. for 4 days, 5 hr",57700 and 39600 and 50300
same,tolerability in dose escalation,p.o. 50-200 mg/kg for 4 days,well tolerated
same,oral absorption in dose escalation,p.o. up to 200 mg/kg,linear oral absorption
same,MIC,A. baumannii ATCC 17978,inactive
same,therapeutic index (IC50/MIC50),HepG2; HepG2 and HT-29 versus Mtb,"greater than 10,000"
same,Growth compared to DMSO control (%),HepG2; 3.13 μM,106.559% and 101.297% and 106.056%
same,Growth compared to DMSO control (%),HepG2; 6.25 μM,105.369% and 100.246%
same,Growth compared to DMSO control (%),HepG2; 12.5 μM,104.304% and 99.8833%
same,Growth compared to DMSO control (%),HepG2; 25 μM,105.369% and 101.144%
